Earlier results, collected in patent publication US20230243813A1, “METHODS FOR SELECTING AND TREATING CANCER WITH FGFR3 INHIBITORS” (GENECENTRIC THERAPEUTICS, INC., priority 2020, published 2023).
Like-named read-outs stand apart in the source and are kept apart here.

Tested on: bladder cancer cell lines
Details: GDSC1/GDSC2 IC50 data, RNA-seq and Affymetrix U219 expression, FAS-1 to FAS-4 scores

Row | sensitivity (IC50) of samples identified as altered by the FAS classifiers | sensitivity (IC50) of samples identified as altered by the FAS classifiers (listed as BIBF) | Compound
1 | showed samples with sensitivity | – | COc1cc2c(Oc3ccc(NC(=O)C4(C(=O)Nc5ccc(F)cc5)CC4)cc3F)ccnc2cc1OCCCN1CCOCC1 [foretinib, Foretinib]
2 | high sensitivity | showed samples with sensitivity | COC(=O)c1ccc2c(c1)NC(=O)/C2=C(\Nc1ccc(N(C)C(=O)CN2CCN(C)CC2)cc1)c1ccccc1 [BIBF 1120, nintedanib]
